# Results: PubChem BioAssay (NCI)
#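 Tested at 5 concentrations; 48 h exposure; 96-well plates; endpoints linearly interpolated, else capped at highest concentration. GI50 = concentration required for 50% inhibition of growth. At the TGI there is no net growth.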
# Columns and labels:
# Test in all cases: growth of human tumour cells (NCI), 48 h
# [1] = tested on: OVCAR-3 ovarian
# [2] = tested on: HL-60(TB) leukemia
# [3] = tested on: MALME-3M melanoma
# [4] = tested on: MDA-MB-231 breast
# [5] = tested on: UO-31 renal
# [6] = tested on: SF-539 CNS
# [7] = tested on: MCF7 breast
# [8] = tested on: HOP-62 NSCLC
# [9] = tested on: SK-OV-3 ovarian
# [10] = tested on: A498 renal
# [11] = tested on: OVCAR-5 ovarian
# [12] = tested on: SK-MEL-2 melanoma
# [13] = tested on: NCI-H460 lung
# [14] = tested on: M14 melanoma
# [15] = tested on: HT29 colon
# [16] = tested on: 786-0 renal
# [17] = tested on: SNB-19 CNS
# [18] = tested on: HCC-2998 colon
# [19] = tested on: U251 CNS
# [20] = tested on: IGROV1 ovarian
# [21] = tested on: SNB-75 CNS
# [22] = tested on: NCI-H226 lung
# [23] = tested on: NCI/ADR-RES ovarian
# [24] = tested on: TK-10 renal
# [25] = tested on: ACHN renal
# [26] = tested on: SK-MEL-5 melanoma
# [27] = tested on: SN12C renal
# [28] = tested on: OVCAR-4 ovarian
# [29] = tested on: UACC-62 melanoma
# [30] = tested on: RXF 393 renal
# [31] = tested on: PC-3 prostate
# [32] = tested on: SF-268 CNS
# [33] = tested on: HOP-92 NSCLC
# [34] = tested on: DU-145 prostate
# [35] = tested on: KM12 colon
# [36] = tested on: SF-295 CNS
# [37] = tested on: CCRF-CEM leukemia
# [38] = tested on: MDA-MB-435
# [39] = tested on: UACC-257 melanoma
# [40] = tested on: HS 578T breast
# [41] = tested on: NCI-H522 lung
# [42] = tested on: A549 NSCLC
# [43] = tested on: SK-MEL-28 melanoma
# [44] = tested on: OVCAR-8 ovarian
# [45] = tested on: SW-620 colon
# [46] = tested on: MOLT-4 leukemia
# [47] = tested on: BT-549 breast
compound,measurement,setting,value
CC(=O)/C=C/c1ccc(OCc2ccc(C(C)(C)C)cc2)cc1,GI50,[1],> 1000 µM
same,TGI,[1],> 1000 µM
same,GI50,[2],> 1000 µM
same,TGI,[2],> 1000 µM
same,GI50,[3],> 1000 µM
same,TGI,[3],> 1000 µM
same,GI50,[4],> 1000 µM
same,TGI,[4],> 1000 µM
same,GI50,[5],> 1000 µM
same,TGI,[5],> 1000 µM
same,GI50,[6],> 1000 µM
same,TGI,[6],> 1000 µM
same,GI50,[7],> 1000 µM
same,TGI,[7],> 1000 µM
same,GI50,[8],> 1000 µM
same,TGI,[8],> 1000 µM
same,GI50,[9],> 1000 µM
same,TGI,[9],> 1000 µM
same,GI50,[10],> 1000 µM
same,TGI,[10],> 1000 µM
same,GI50,[11],> 1000 µM
same,TGI,[11],> 1000 µM
same,GI50,[12],> 1000 µM
same,TGI,[12],> 1000 µM
same,GI50,[13],> 1000 µM
same,TGI,[13],> 1000 µM
same,GI50,[14],> 1000 µM
same,TGI,[14],> 1000 µM
same,GI50,[15],40.7 µM
same,TGI,[15],> 1000 µM
same,GI50,[16],> 1000 µM
same,TGI,[16],> 1000 µM
same,GI50,[17],> 1000 µM
same,TGI,[17],> 1000 µM
same,GI50,[18],> 1000 µM
same,TGI,[18],> 1000 µM
same,GI50,[19],> 1000 µM
same,TGI,[19],> 1000 µM
same,GI50,[20],> 1000 µM
same,TGI,[20],> 1000 µM
same,GI50,[21],> 1000 µM
same,TGI,[21],> 1000 µM
same,GI50,[22],> 1000 µM
same,TGI,[22],> 1000 µM
same,GI50,[23],> 1000 µM
same,TGI,[23],> 1000 µM
same,GI50,[24],> 1000 µM
same,TGI,[24],> 1000 µM
same,GI50,[25],> 1000 µM
same,TGI,[25],> 1000 µM
same,GI50,[26],46.5 µM
same,TGI,[26],> 1000 µM
same,GI50,[27],> 1000 µM
same,TGI,[27],> 1000 µM
same,GI50,[28],> 1000 µM
same,TGI,[28],> 1000 µM
same,GI50,[29],> 1000 µM
same,TGI,[29],> 1000 µM
same,GI50,[30],> 1000 µM
same,TGI,[30],> 1000 µM
same,GI50,[31],> 1000 µM
same,TGI,[31],> 1000 µM
same,GI50,[32],> 1000 µM
same,TGI,[32],> 1000 µM
same,GI50,[33],> 1000 µM
same,TGI,[33],> 1000 µM
same,GI50,[34],> 1000 µM
same,TGI,[34],> 1000 µM
same,GI50,[35],> 1000 µM
same,TGI,[35],> 1000 µM
same,GI50,[36],> 1000 µM
same,TGI,[36],> 1000 µM
same,GI50,[37],> 1000 µM
same,TGI,[37],> 1000 µM
same,GI50,[38],> 1000 µM
same,TGI,[38],> 1000 µM
same,GI50,[39],> 1000 µM
same,TGI,[39],> 1000 µM
same,GI50,[40],> 1000 µM
same,TGI,[40],> 1000 µM
same,GI50,[41],> 1000 µM
same,TGI,[41],> 1000 µM
same,GI50,[42],> 1000 µM
same,TGI,[42],> 1000 µM
same,GI50,[43],> 1000 µM
same,TGI,[43],> 1000 µM
same,GI50,[44],> 1000 µM
same,TGI,[44],> 1000 µM
same,GI50,[45],> 1000 µM
same,TGI,[45],> 1000 µM
same,GI50,[46],> 1000 µM
same,TGI,[46],> 1000 µM
Clc1cc(Cl)cc(-c2ccc(-c3ccc(/C=N/NC4=NCCN4)cc3)s2)c1,GI50,[6],1.7 µM
same,TGI,[6],3.07 µM
same,GI50,[10],1.39 µM
same,TGI,[10],5.78 µM
same,GI50,[21],1.78 µM
same,TGI,[21],7.93 µM
same,GI50,[22],4.16 µM
same,TGI,[22],> 100 µM
same,GI50,[26],4.61 µM
same,TGI,[26],> 100 µM
same,GI50,[32],1.98 µM
same,TGI,[32],4.67 µM
same,GI50,[34],1.77 µM
same,TGI,[34],3.2 µM
same,GI50,[35],1.71 µM
same,TGI,[35],3.12 µM
same,GI50,[40],2.3 µM
same,TGI,[40],6.41 µM
same,GI50,[43],2.09 µM
same,TGI,[43],4.69 µM
same,GI50,[47],9.24 µM
same,TGI,[47],57.4 µM
